Experimental data published in patent US20240199601A1, “QUINONE COMPOUND AND PHARMACEUTICAL USE THEREOF” (NANJING SHUPENG LIFE SCIENCE CO., LTD., priority 2021, published 2024).

What was measured:
[1] = test system: antioxidant transcription factor (Nrf2); assay: Nrf2 expression in RAW264.7 cells (protein hybridization); type: cell-based; settings: different concentrations, 24 hours
Method: (§1) RAW264.7 cells were inoculated into two six-well plates and enabled to grow to a density of about 90%, and SP3101 and SP3102 of different concentrations were added, respectively. 24 hours later, the cells were lysed with a radio immunoprecipitation assay (RIPA) lysis buffer, and the expression of proteins was detected by protein hybridization.
(§2) Phosphorylation of serine at the 127th site of AMPK is used as an activation marker. […] It can be seen that the compounds, represented by the SP3101 and the SP3102, of the present invention are used as an AMPK agonist.

[2] = test system: chronic constriction injury (CCI) model; assay: Neuropathic pain, CCI model of the sciatic nerve, Von Frey; type: in vivo, B6 mice; settings: 40 mg/kg by gavage, 1.5, 24 and 48 hours after administration, CCI mice, p<0.01
From the text: A CCI model was used for realizing neuropathic pain. 6- to 8-week-old B6 mice were anesthetized, shaved from the roots of the left legs to parts about 1-2 mm higher than the horizontal lines of the tail root bones, and cut horizontally to obtain small wounds. Muscles were bluntly separated by hemostatic forceps, the sciatic nerves were found and picked out with elbow tweezers, and 4-0 chromium-containing catgut sutures soaked in sterile normal saline in advance were picked out with another elbow tweezer. Three catgut sutures were penetrated through the sciatic nerve of each mouse and ligatured in an upper part, a middle part and a lower part at a distance of 1 mm, respectively at an appropriate intensity enabling surrounding muscles to have small and transient twitches. […]
On day 7 after surgery, mechanical pain thresholds of the mice were detected by using Von Frey fibrils. […] Then, the mice were stimulated again at an adjacent lower intensity, and the intensity interval of first positive responses and negative responses was recorded. […]
The test mice were divided into three groups: an unmolded group, a molded solvent group and a molded administration group. 0.5% methylcellulose was used as a solvent, SP3101 was used as a drug and administered at a dose of 40 mg/kg according to the body weight each time, and the pain thresholds were detected 1.5, 24, 48 and 72 hours after administration.

[3] = test system: AMPK; assay: AMPK agonist test in RAW264.7 cells (protein hybridization, p-AMPK); type: cell-based; settings: 0.1 μM, 24 hours
Method: as §1, §2

[4] = test system: autophagy related protein (LC3B); assay: LC3B expression in RAW264.7 cells (protein hybridization); type: cell-based; settings: different concentrations, 24 hours
Method: as §1, §2

[5] = test system: cisplatin-induced hyperalgesia; assay: Cisplatin chemotherapy pain model; type: in vivo, B6 mice; settings: 40 mg/kg/day by gavage, cisplatin 2.3 mg/kg/day i.p., mice, Von Frey 0.4 g and 1.0 g
From the text: 20 12-week-old male B6 mice were selected and allowed to adapt to the environment for three days.
On DAY 1, basic mechanical pain thresholds were detected by using Von Frey fibrils, the mice with abnormal pain thresholds were abandoned (no abnormal mice were found in this batch), and the pain thresholds were basically about 1.4-2.0 g. According to the basic pain thresholds, a pain threshold of 0.4 g was used in this test, and a pain threshold of 1.0 g was used in subsequent detection Behaviors such as foot lifting and foot licking were identified as positive responses.
On DAYS 1-5, after the basic mechanical pain thresholds were detected, the mice were randomly divided into the following groups: (1) a model control group (n=10) and (2) an SP3101 group (n=10) administered by gavage at a dose of 40 mg/kg/day, where the mice in the model control group were administered with double distilled water by gavage, and the mice in the two groups were administered with cisplatin prepared with normal saline (2.3 mg/kg/day) by intraperitoneal injection 0.5 hour later.
On DAYS 6-10, the mice were only administered with SP3101 and water by gavage, and on DAY 7, the mechanical pain thresholds were detected.
On DAYS 11-15, the operations on DAYS 1-5 were repeated, and on DAY 15, the mechanical pain thresholds were detected. […]

[6] = test system: movement of the mice in an open field; assay: Sedation test, open field test (OFT); type: in vivo, B6 mice; settings: single intraperitoneal injection 20 or 50 mg/kg, 2 hours after administration
Method: A total of 15 12-week-old male B6 mice were selected and allowed to adapt to the environment for three days. The mice were randomly divided into 3 groups including: (1) a blank control group (n=5), (2) a low-dose SP3101 group at a dose of 20 mg/kg (n=5) and (3) a high-dose SP3101 group at a dose of 50 mg/kg (n=5). The mice were administered by intraperitoneal injection at a single dose according to the groups, where the mice in the blank control group were administered with an equal volume of normal saline by intraperitoneal injection. 2 hours after the administration, the mice were traced by a video tracking and detection system in an open field test (OFT), followed by behavioral evaluation.

[7] = test system: inflammatory pain model (complete Freund's adjuvant); assay: Inflammatory pain model (complete Freund's adjuvant), mechanical pain threshold; type: in vivo, SD rats; settings: rats
Method: 4 SD rats with a body weight of 200-250 g were used as a blank control (NC), and normal saline was injected into the soles of the left feet of the rats. Inflammatory pain models of 18 rats were constructed, that is to say, 100 μL of a complete Freund's adjuvant was injected into soles of the left feet of the rats, mechanical pain thresholds of the left feet were detected by an ALMEMO2490 data collector 24 hours later, 2 rats with a pain threshold of greater than 15 were abandoned, and the other 16 rats were randomly divided into 4 groups with 4 rats in each group and then administered with water as a positive control (PC), SP3101 (20 mg/kg), PQQ (20 mg/kg) and ibuprofen (25 mg/kg/day) by gavage, respectively.

[8] = test system: inflammatory pain model with AMPK inhibited; assay: Long-acting analgesic mechanism: CFA pain model with AMPK inhibitor compound c; type: in vivo, SD rats; settings: compound c (Dorsomorphin) into caudal vein half an hour before oral SP3101 20 mg/kg, rats
Method: Similar to the modeling method in Activity Test 1, 100 uL of a complete Freund's adjuvant was injected into the soles of the left feet of SD rats with a body weight of 200-250 g, mechanical pain thresholds of the left feet were detected by an ALMEMO2490 data collector 24 hours later, and the rats with a pain threshold of greater than 15 were abandoned. On the second day of modeling, 100 μL of a compound c as an AMPK inhibitor (Dorsomorphin, CAS No.866405-64-3, CC, 0.4 mg/ml) was injected into the caudal vein of each rat, the rats were orally administered with SP3101 (20 mg/kg) half an hour later, and the pain thresholds were detected after 1.5 hours and 24 hours, respectively.

Structure (SMILES): O=C1C(=O)c2nc(O)cc(C(=O)O)c2-c2[nH]ccc21 [SP3101, 4,5-dioxo-4,5-dihydro-1H-pyrrolo[2,3-f]quinone-7-hydroxy-9-carboxylic acid]
- expression of antioxidant transcription factor (Nrf2) [1]: increased in a dose-dependent manner
- analgesic effect (Von Frey mechanical pain threshold) [2]: obvious analgesic effect
- activation of AMPK (expression of p-AMPK) [3]: obviously activate the AMPK
- expression of autophagy related protein (LC3B) [4]: also increased
- alleviation of cisplatin-induced hyperalgesia [5]: obvious effect of alleviating
- movement of the mice in an open field (sedative effect) [6]: obviously reduces movement of the mice in an open field
- overall analgesic profile ([7]; CFA inflammatory pain model, oral): rapid analgesic effect and a long-acting analgesic effect
- analgesic effect on day 5-7 ([7]; single oral 20 mg/kg, compared with model group (PC)): the analgesic effect is reduced
- duration of the analgesic effect ([7]; single oral dose (SP3101 20 mg/kg)): 72 h
- analgesic effect 1.5 hours after oral administration ([7]; single oral dose (SP3101 20 mg/kg), mechanical pain threshold vs model group): obvious analgesic effect
- long-acting (24 hours) analgesic effect while AMPK is inhibited [8]: eliminated
- short-acting (1.5 hours) analgesic effect while AMPK is inhibited [8]: not affected
